In ChEMBL document CHEMBL1128929, “A novel nitro-substituted seco-CI: Application as a reductively activated adept prodrug” (Bioorg Med Chem Lett, 1996):

What was measured:
[1] = Ratio of IC50 (drug alone)/IC50(drug+NADH+enzyme); type: functional
[2] = Compound was evaluated for its inhibitory activity against UV4 cell in the presence of drug alone.; type: functional, cell-based, Cricetulus griseus
[3] = Compound was evaluated for its inhibitory activity against UV4 cell in the presence of drug along with NADH and enzyme(Escherichia coli B nitroreductase); type: functional, cell-based, Cricetulus griseus
[4] = Compound was evaluated for its inhibitory activity against UV4 cell in the presence of drug and NADH.; type: functional, cell-based, Cricetulus griseus

SMILES	Ratio [1]	IC50 [2]	IC50 [3]	IC50 [4]
COc1cc2cc(C(=O)N3CC(CCl)c4ccc(N)cc43)[nH]c2c(OC)c1OC (configuration not stated)	23.2	23.6 nM	27.8 nM	26.6 nM
COc1cc2cc(C(=O)N3CC(CCl)c4ccc([N+](=O)[O-])cc43)[nH]c2c(OC)c1OC (configuration not stated)	402	2310 nM	6.4 nM	237 nM
COc1cc2cc(C(=O)N3CC(CCl)c4ccc(NC(=O)OCc5ccc([N+](=O)[O-])cc5)cc43)[nH]c2c(OC)c1OC (configuration not stated)	0.9	15000 nM	598 nM	11300 nM
